Values quoted from earlier work, collected in PMC8025584, “Identification of multipotent drugs for COVID-19 therapeutics with the evaluation of their SARS-CoV2 inhibitory activity” (Computational and Structural Biotechnology Journal, 2021).
Structures can show the parent of a compound that is named as a salt. Where two headings read alike, the source gives them in different places. Where no end group is shown, it is not given here.

Tested on: differentially expressed human proteins in COVID-19
Conditions: cited from earlier work
[1] = gene TNF, drug-gene interaction listed in DGIdb export, ref DGIdb
[2] = gene HCK, drug-gene interaction listed in DGIdb export, ref DGIdb
[3] = gene F5, drug-gene interaction listed in DGIdb export, ref DGIdb

Question: Which interaction_types [1] does the source give for `CN[C@@H](C)[C@@H](O)c1ccccc1` [PSEUDOEPHEDRINE] here?
Answer: inhibitor

Question: With `CC(=O)O[C@H]1C(=O)[C@@]2(C)[C@H]([C@H](OC(=O)c3ccccc3)[C@]3(O)C[C@H](OC(=O)[C@H](O)[C@@H](NC(=O)c4ccccc4)c4ccccc4)C(C)=C1C3(C)C)[C@]1(OC(C)=O)CO[C@@H]1C[C@@H]2O` [Paclitaxel, reference compound] as the molecule, how does the interaction_types (gene TUBA4A, ref DGIdb) read?
Answer: inhibitor

Question: Which interaction_types (gene CA1, ref DGIdb) does the source give for `CCC1NC(=O)c2cc(S(N)(=O)=O)c(Cl)cc2N1` (stereo not drawn) [QUINETHAZONE] here?
Answer: inhibitor

Question: With `CCCCCc1cccc(CC(=O)O)c1` [SETOGEPRAM] as the molecule, how does the interaction_types (gene GPR84, ref DGIdb) read?
Answer: antagonist

Question: For `CCN1CCCC1CNC(=O)c1cc(S(N)(=O)=O)ccc1OC` (stereo not drawn) [SULPIRIDE], which interaction_types (gene CA1, ref DGIdb) is on record?
Answer: inhibitor

Question: Which interaction_types (gene P2RY13, ref DGIdb) does the source give for `Cc1ccc(C(=O)Nc2ccc(S(=O)(=O)O)c3cc(S(=O)(=O)O)cc(S(=O)(=O)O)c23)cc1NC(=O)c1cccc(NC(=O)Nc2cccc(C(=O)Nc3cc(C(=O)Nc4ccc(S(=O)(=O)O)c5cc(S(=O)(=O)O)cc(S(=O)(=O)O)c45)ccc3C)c2)c1` [SURAMIN] here?
Answer: antagonist

Question: Which interaction_types (gene PSENEN, ref DGIdb) does the source give for `C[C@@H](C(=O)O)c1ccc(-c2ccccc2)c(F)c1` [TARENFLURBIL] here?
Answer: modulator

Question: With `CCOC(=O)c1ccc(C#Cc2ccc3c(c2)C(C)(C)CCS3)nc1` [TAZAROTENE, reference compound] as the molecule, how does the interaction_types (gene RXRB, ref DGIdb) read?
Answer: agonist

Question: Which interaction_types (gene KCNH7, ref DGIdb) does the source give for `COc1cc2nc(N3CCN(C(=O)C4CCCO4)CC3)nc(N)c2cc1OC` (stereo not drawn) [TERAZOSIN] here?
Answer: inhibitor

Question: For `C[C@]12C=CC(=O)C=C1CC[C@@H]1[C@@H]2CC[C@]2(C)OC(=O)CC[C@@H]12` [TESTOLACTONE], which interaction_types (gene CYP19A1, ref DGIdb) is on record?
Answer: inhibitor

Question: Which interaction_types (gene FGR, ref DGIdb) does the source give for `Cc1cc(-c2cc(OC(=O)c3ccccc3)ccc2Cl)cc2nnc(Nc3ccc(OCCN4CCCC4)cc3)nc12` [TG100-801] here?
Answer: inhibitor

Question: What about the interaction_types [2] of the same molecule?
Answer: inhibitor

Question: For `O=C1CCC(N2C(=O)c3ccccc3C2=O)C(=O)N1` (stereo not drawn) [THALIDOMIDE, reference compound], which interaction_types [1] is on record?
Answer: inhibitor

Question: With `CC1(C)O[C@@H]2[C@@H](CO[C@@]3(COS(N)(=O)=O)OC(C)(C)O[C@@H]23)O1` [TOPIRAMATE] as the molecule, how does the interaction_types (gene CA1, ref DGIdb) read?
Answer: inhibitor

Question: With `CC1=C(/C=C/C(C)=C/C=C/C(C)=C/C(=O)O)C(C)(C)CCC1` [TRETINOIN, reference compound] as the molecule, how does the interaction_types (gene RXRB, ref DGIdb) read?
Answer: agonist

Question: For `NS(=O)(=O)c1cc2c(cc1Cl)NC(C(Cl)Cl)NS2(=O)=O` (stereo not drawn) [TRICHLORMETHIAZIDE, reference compound], which interaction_types (gene CA1, ref DGIdb) is on record?
Answer: inhibitor

Question: Which interaction_types [1] does the source give for `Cc1ccc2c(=O)c3cccc(CC(=O)O)c3oc2c1C` [VADIMEZAN] here?
Answer: inducer

Question: Which interaction_types (gene TUBA4A, ref DGIdb) does the source give for `CC[C@]1(O)C[C@@H]2CN(CCc3c([nH]c4ccccc34)[C@@](C(=O)OC)(c3cc4c(cc3OC)N(C)[C@H]3[C@@](O)(C(=O)OC)[C@H](OC(C)=O)[C@]5(CC)C=CCN6CC[C@]43[C@@H]65)C2)C1` [VINBLASTINE SULFATE] here?
Answer: inhibitor

Question: Which interaction_types (gene TUBA4A, ref DGIdb) does the source give for `CC[C@]1(O)C[C@H]2CN(CCc3c([nH]c4ccccc34)[C@@](C(=O)OC)(c3cc4c(cc3OC)N(C=O)[C@H]3[C@@](O)(C(=O)OC)[C@H](OC(C)=O)[C@]5(CC)C=CCN6CC[C@]43[C@@H]65)C2)C1` [VINCRISTINE SULFATE] here?
Answer: inhibitor

Question: Which interaction_types (gene TUBA4A, ref DGIdb) does the source give for `CC[C@]12C=CCN3CC[C@@]4(c5cc([C@@]6(C(=O)OC)C[C@@H]7C[C@@H](C(C)(F)F)CN(Cc8c6[nH]c6ccccc86)C7)c(OC)cc5N(C)[C@H]4[C@@](O)(C(=O)OC)[C@@H]1OC(C)=O)[C@@H]32` [VINFLUNINE] here?
Answer: inhibitor

Question: Which interaction_types (gene TUBA4A, ref DGIdb) does the source give for `CCC1=C[C@@H]2CN(C1)Cc1c([nH]c3ccccc13)[C@@](C(=O)OC)(c1cc3c(cc1OC)N(C)[C@H]1[C@@](O)(C(=O)OC)[C@H](OC(C)=O)[C@]4(CC)C=CCN5CC[C@]31[C@@H]54)C2` [VINORELBINE TARTRATE] here?
Answer: inhibitor

Question: Which interaction_types (gene RPL3, drug-gene interaction listed in DGIdb export, ref DGIdb) does the source give for `CN(CCO)CC(O)Cn1cnc2c1c(=O)n(C)c(=O)n2C` (stereo not drawn) [XANTHINOL] here?
Answer: binder

Question: What does the source list for `CC(C)c1cc(CNc2nc(Nc3cc(C4CC4)[nH]n3)cc(N3CCN(C)CC3)n2)on1` [XL-228]?
Answer: interaction_types (gene FGR, ref DGIdb): inhibitor; interaction_types [2]: inhibitor

Question: For `C=CC(=O)N1CCC([C@@H]2CCNc3c(C(N)=O)c(-c4ccc(Oc5ccccc5)cc4)nn32)CC1` [ZANUBRUTINIB], which interaction_types (gene FGR, ref DGIdb) is on record?
Answer: inhibitor

Question: With `CSCC[C@@H]1NC(=O)[C@H](CC(C)C)NC(=O)[C@H](CCCNC(=N)N)NC(=O)[C@H](CO)NC(=O)[C@@H]2CSSC[C@@H]3NC(=O)[C@H](CO)NC(=O)CNC(=O)[C@H]([C@@H](C)O)NC(=O)[C@H](CSSC[C@H](N)C(=O)N[C@@H](CCCCN)C(=O)NCC(=O)N[C@@H](CCCCN)C(=O)NCC(=O)N[C@@H](C)C(=O)N[C@@H](CCCCN)C(=O)N2)NC(=O)[C@H](CSSC[C@@H](C(N)=O)NC(=O)[C@H](CCCCN)NC(=O)CNC(=O)[C@H](CO)NC(=O)[C@H](CCCNC(=N)N)NC3=O)NC(=O)[C@H](CC(=O)O)NC(=O)[C@H](Cc2ccc(O)cc2)NC1=O` [ZICONOTIDE] as the molecule, how does the interaction_types read?
Answer: inhibitor

Question: For `NS(=O)(=O)Cc1noc2ccccc12` [ZONISAMIDE], which interaction_types (gene CA1, ref DGIdb) is on record?
Answer: inhibitor

Question: For `CCCN(c1ccncc1F)n1cc(C)c2ccccc21` [[…]], which interaction_types (gene KCNH7, ref DGIdb) is on record?
Answer: blocker

Question: Which interaction_types (gene SELL, ref DGIdb) does the source give for `C[C@@H]1O[C@@H](O[C@@H]2[C@@H](NC(=O)c3cc(=O)[nH]c(=O)[nH]3)C[C@@H](C(=O)NCCNC(=O)COCCOCC(=O)Nc3cc(S(=O)(=O)O)cc4cc(S(=O)(=O)O)cc(S(=O)(=O)O)c34)C[C@H]2O[C@@H]2O[C@H](CO)[C@H](O)[C@H](O[C@@H](CC3CCCCC3)C(=O)O)[C@H]2OC(=O)c2ccccc2)[C@@H](O)[C@H](O)[C@@H]1O` [[…]] here?
Answer: antagonist

Question: With `Nc1cnc(-c2cc(Cl)cc(Cl)c2Cl)c(N)n1` [[…]] as the molecule, how does the interaction_types (gene CACNA1A, drug-gene interaction listed in DGIdb export, ref DGIdb) read?
Answer: blocker

Question: With `c1ccc(-c2[nH]ncc2-c2ccnc3ccccc23)nc1` [chembl:CHEMBL261454] as the molecule, how does the interaction_types (gene GAK, drug-gene interaction listed in DGIdb export, ref DGIdb) read?
Answer: inhibitor

Question: Which interaction_types (gene FPR1, ref DGIdb) does the source give for `COc1cc(/C=N/NC(=O)c2ccc3c(c2)OCO3)ccc1OCc1ccccc1` [chembl:CHEMBL1290251] here?
Answer: agonist

Question: With ADALIMUMAB as the molecule, how does the interaction_types [1] read?
Answer: antibody¦inhibitor

Question: Which interaction_types does the source give for ALDESLEUKIN here?
Answer: agonist

Question: With BAMINERCEPT as the molecule, how does the interaction_types (gene TNFSF14, ref DGIdb) read?
Answer: inhibitor

Question: With BASILIXIMAB as the molecule, how does the interaction_types (gene IL2RG, ref DGIdb) read?
Answer: inhibitor

Question: Which interaction_types (gene TNFSF13B, drug-gene interaction listed in DGIdb export, ref DGIdb) does the source give for BELIMUMAB here?
Answer: antibody¦inhibitor¦modulator

Question: With BRENTUXIMAB VEDOTIN as the molecule, how does the interaction_types (gene TUBA4A, ref DGIdb) read?
Answer: inhibitor

Question: With CEPROTIN as the molecule, how does the interaction_types [3] read?
Answer: inactivator

Question: Which interaction_types (gene IL2RG, ref DGIdb) does the source give for DENENICOKIN here?
Answer: agonist

Question: For DROTRECOGIN ALFA (ACTIVATED), which interaction_types [3] is on record?
Answer: inhibitor

Question: For ETANERCEPT, which interaction_types [1] is on record?
Answer: inhibitor¦antibody

Question: Which interaction_types (gene CSF2RB, ref DGIdb) does the source give for FILGRASTIM here?
Answer: agonist

Question: And the interaction_types (gene CSF3R, ref DGIdb)?
Answer: stimulator¦agonist

Question: Which interaction_types [1] does the source give for INFLIXIMAB here?
Answer: inhibitor

Question: Which interaction_types (gene IL2RG, ref DGIdb) does the source give for “INTERLEUKIN 15, RECOMBINANT NON-GLYCOSYLATED” here?
Answer: agonist

Question: For LIPEGFILGRASTIM, which interaction_types (gene CSF3R, ref DGIdb) is on record?
Answer: agonist

Question: For LVVYPWT [SPINORPHIN], which interaction_types (gene FPR1, ref DGIdb) is on record?
Answer: antagonist

Question: For NADROPARIN, which interaction_types (gene FOS, ref DGIdb) is on record?
Answer: inhibitor

Question: Which interaction_types (gene CSF3R, ref DGIdb) does the source give for PEGFILGRASTIM here?
Answer: agonist

Question: For POLAPREZINC, which interaction_types [1] is on record?
Answer: inhibitor

Question: Which interaction_types (gene CSF2RB, ref DGIdb) does the source give for REGRAMOSTIM here?
Answer: agonist

Question: With RILONACEPT as the molecule, how does the interaction_types (gene IL1RN, ref DGIdb) read?
Answer: binder

Question: For SARGRAMOSTIM, which interaction_types (gene CSF2RB, ref DGIdb) is on record?
Answer: agonist

Question: With THROMBIN as the molecule, how does the interaction_types [3] read?
Answer: activator

Question: For TRASTUZUMAB EMTANSINE, which interaction_types is on record?
Answer: inhibitor

B1: LENOGRASTIM (protein, UniProt P09919 31-207, looked up)
Granulocyte …: TPLGPASSLPQSFLLKCLEQVRKIQGDGAALQEKLVSECATYKLCHPEELVLLGHSLGIPWAPLSSCPSQALQLAGCLSQLHSGLFLYQGLLQALEGISPELGPTLDTLQLDVADFATTIWQQMEELGMAPALQPTQGAMPAFASAFQRRAGGVLVASHLQSFLEVSYRVLRHLAQP
modifications: glycosylated
Question: Which interaction_types (gene CSF3R, ref DGIdb) does the source give for B1 here?
Answer: agonist

B2: OTLERTUZUMAB (antibody, chains of the INN, looked up, V domains shown)
VH: EVQLVQSGAEVKKPGESLKISCKGSGYSFTGYNMNWVRQMPGKGLEWMGNIDPYYGGTTYNRKFKGQVTISADKSISTAYLQWSSLKASDTAMYYCARSVGPFDSWGQGTLVTVSS
VL: EIVLTQSPATLSLSPGERATLSCRASENVYSYLAWYQQKPGQAPRLLIYFAKTLAEGIPARFSGSGSGTDFTLTISSLEPEDFAVYYCQHHSDNPWTFGQGTKVEIK
Question: For B2, which interaction_types (gene CD37, ref DGIdb) is on record?
Answer: antibody

B3: DACLIZUMAB (antibody, chains of the INN, looked up, V domains shown)
VH: QVQLVQSGAEVKKPGSSVKVSCKASGYTFTSYRMHWVRQAPGQGLEWIGYINPSTGYTEYNQKFKDKATITADESTNTAYMELSSLRSEDTAVYYCARGGGVFDYWGQGTLVTVSS
VL: DIQMTQSPSTLSASVGDRVTITCSASSSISYMHWYQQKPGKAPKLLIYTTSNLASGVPARFSGSGSGTEFTLTISSLQPDDFATYYCHQRSTYPLTFGQGTKVEVK
Question: Which interaction_types (gene IL2RG, ref DGIdb) does the source give for B3 here?
Answer: inhibitor

B4: ASELIZUMAB (antibody, chains of the INN, looked up, V domains shown)
VH: EVQLVESGGGLVQPGGSLRLSCAASGFTFSTYAMSWVRQAPGKGLEWVASISTGGSTYYPDSVKGRFTISRDNAKNTLYLQMNSLRAEDTAVYYCARDYDGYFDYWGQGTLVTVSS
VL: DIQMTQSPSSLSASVGDRVTITCKASQSVDYDGDSYMNWYQQKPGKAPKLLIYAASNLESGIPSRFSGSGSGTDFTLTISSLQPEDFATYYCQQSNEDPWTFGQGTKVEIK
Question: For B4, which interaction_types (gene SELL, ref DGIdb) is on record?
Answer: inhibitor
